Key:
Colo-205 cells [1] = assay: In vitro drug treatment, CellTitreGlo proliferation of cell-free ascites-treated cells; type: cell-based, Human; settings: 5% cell-free ascites of PPA, CAP, APA groups or FBS control, 72 hours
Procedure: A total of 5,000 cells/wells were seeded in 96-well plates and were grown for 24 hours in serum-free RPMI medium supplemented with 5% cell-free ascites or complete media, and then treated with various concentrations of TM5441 (PAI-1 inhibitor), Tiplaxtinin (PAI-1 inhibitor), Napabucasin (STAT3 inhibitor), BEZ235 (dual PI3K/mTOR inhibitor) and Mitomycin C (chemotherapeutic agent used in hyperthermic intraperitoneal chemotherapy (HIPEC)) for 72 hours. Cell proliferation was assessed using CellTitreGlo assay (Promega, Madison, US). These experiments were performed in triplicates and were repeated at least 3 times.

Colo-205 cells [2] = assay: In vivo PC cell line mouse model drug treatment (ascites groups); design: species or system BALB/c nude mice; settings: PPA cell-free ascites (PC085)-treated mice; 1.75 mM TM5441 i.p. every 3 days for 21 days; n=5 mice/group
Procedure: To determine the efficacy of PAI-1 inhibition in different susceptibility ascites groups in vivo, 5×10^6 of Colo-205 cells were co-injected with cell-free ascites representative of PAI-1 paracrine addicted (PPA) group, co-activators predominant (CAP) group or foetal bovine serum (FBS) into abdominal cavity of 6- to 8-week-old BALB/c nude mice (female, n=5 mice/group) and treated with 1.75 mM TM5441 administered intraperitoneally. Ascites and drug treatment were performed by injecting 400 μL of 5% cell-free ascites or 10% foetal bovine serum (FBS) with TM5441 intraperitoneally every 3 days for a duration of 21 days. After 3 weeks, the mice were sacrificed and tumour burden was quantified based on a modified peritoneal carcinomatosis index (PCI) score and presented as total peritoneal carcinomatosis index (PCI) score. Total peritoneal carcinomatosis index (PCI) score was calculated based on the sum of score for each region and ranges from 0 to 39.

[3] = system: IL6-JAK-STAT3 signalling pathway; assay: Gene expression profiling (RNA microarray, GSEA) upon PAI-1 inhibition; type: cell-based, Human; settings: Colo-205 cells, PPA cell-free ascites (PC085), 27.25 μM TM5441 vs DMSO, 24 hours
Procedure: To assess signalling pathways affected by PAI-1 inhibition, Colo-205 cells were treated with cell-free ascites representative of PAI-1 paracrine addicted (PPA) group, co-activators predominant (CAP) group or foetal bovine serum (FBS; control) in the presence of DMSO vehicle or 27.25 μM TM5441 for 24 hours. Total RNA was isolated using Qiagen Mini Kit (Qiagen, CA, USA), following the manufacturer's instructions. Gene expression profiling was performed using Affymetrix GeneChip Genome U133 Plus 2.0 microarray platform (Affymetrix, Santa Clara, Calif.) in accordance to manufacturer's protocols. Microarray data was uploaded into the free programming software R (R Foundation for Statistical Computing, Vienna, Austria) for processing and normalization. Gene Set Enrichment Analysis (GSEA) was used to assess enrichment of genes showing up- and down-regulation using GSEA graphical user interface (GUI) software (http://www.broadinstitute.org/gsea/).

[4] = system: patient-derived ascites-dependent xenograft (PDADX) tumours; assay: Patient-derived ascites-dependent xenografts (PDADXs) drug treatment; type: in vivo, BALB/c nude mice; settings: 2 mM TM5441 i.p. every 3 days for 21 days
Procedure: Ascites collected from patients with peritoneal carcinomatosis were centrifuged at 2000 g for 10 minutes to concentrate the cellular components and to separate the fluid component. 1 mL of cell pellet was resuspended with 1 mL of ascitic fluid and 400 μL of the mixture was implanted intraperitoneally into 6-week-old BALB/c nude mice (n=5 mice) to generate patient-derived ascites-dependent xenograft (PDADX) passage 0 (P0). For subsequent passages, patient-derived ascites-dependent xenograft (PDADX) tumours were diced into small pieces using scalpel blades and passed through an 18-G syringe needle. Diced tumours were resuspended with matched patient's ascites at 1:1 ratio and implanted intraperitoneally into 6-week-old BALB/c nude mice (n=10 mice).
Matched patient's cell-free ascites and its cellular components were used to generate patient-derived ascites-dependent xenografts (PDADXs) to better recapitulate peritoneal carcinomatosis patients. PAI-1 paracrine addicted (PPA) patient-derived ascites-dependent xenograft (PDADX) tumours (100 mg) were implanted into 16 female BALB/c nude mice intraperitoneally and co-activators predominant (CAP) patient-derived ascites-dependent xenograft (PDADX) tumours (100 mg) were implanted into 16 female BALB/c nude mice intraperitoneally. […] Tumour burden was quantified by weighing all visible tumours after mice were sacrificed.
Briefly, co-activators predominant (CAP) patient-derived ascites-dependent xenograft (PDADX) tumours (100 mg) were implanted into 16 female BALB/c nude mice intraperitoneally. […] Tumour burden was quantified by weighing all visible tumours after mice were sacrificed.

phospho-STAT3 (Tyr705) = assay: p-STAT3 (Y705) ELISA of cell-free ascites-treated cancer cells with TM5441; type: cell-based, Human; settings: cells exposed to PPA cell-free ascites (PC085, PC383) versus CAP (PC249) and APA (PC010)
Procedure: Concentrations of PAI-1 (DSE100), IL6 (D6050), IL10 (D1000B), CCL2 (DCP00), MMP9 (DMP900), ANGPT1 (DANG10), TGFB1 (DB100B), and CXCL10 (DIP100) in cell-free ascites were quantified using human Quantikine ELISA kits from R&D Systems. Concentrations of POSTN (DY3548B) and CD44 (DY7045-05) in cell-free ascites were quantified using human DuoSet ELISA kits from R&D Systems. VSIG4 (ELH-VSIG4-1) concentration in cell-free ascites was quantified using ELISA from RayBiotech. All samples were performed with 2 technical replicates according to the manufacturers' instructions. Total STAT3 and phospho-STAT3 (Tyr705) were detected with ELISA (7305C and 7300C, Cell Signalling Technology, Massachusetts, US). Proteins were isolated from cell lysates of Colo-205 and SNU-C1 that were treated with 5% cell-free ascites for 24 hours. In all experiments, 25 μg of protein was used for total STAT3 and p-STAT3(Y705) ELISA following the manufacturer's instructions.

Colo-205 cells [5] = assay: In vivo PC cell line mouse model, drug concentration and delivery method (i.p. vs oral); design: species or system BALB/c nude mice; settings: PPA cell-free ascites (PC085); i.p. every 3 days up to 21 days; n=4 mice/group
Procedure: To determine the optimal drug concentration and drug delivery method, a total of 16 female BALB/c nude mice with the age of 6-8 weeks old were selected for the experiment. Each mouse was injected with 5×10^6 of Colo-205 cells intraperitoneally. The mice were divided into 4 groups and given the following treatments: (i) 5% cell-free ascites with 1% DMSO, (ii) 5% cell-free ascites with 1 mM TM5441, (iii and iv) 5% cell-free ascites with 2 mM TM5441. Treatment was performed by injecting 400 μL of 5% cell-free ascites with DMSO vehicle/drug intraperitoneally (i-iii) and orally (iv) every 3 days, up to 21 days. After 3 weeks, the mice were sacrificed and tumour burden was quantified based on a modified peritoneal carcinomatosis index (PCI) score and presented as total peritoneal carcinomatosis index (PCI) score. Total peritoneal carcinomatosis index (PCI) score was calculated based on the sum of score for each region and ranges from 0 to 39.

Question: For `Cn1c(=O)n(-c2ccc(C(C)(C)C#N)cc2)c2c3cc(-c4cnc5ccccc5c4)ccc3ncc21` [BEZ235], which “Sensitivity of cell-free ascites-treated Colo-205 cells to inhibitor (dose-response, cell proliferation)” value (Colo-205 cells [1]) is on record?
Answer: ineffective

Question: For `O=C(COCC(=O)Nc1ccc(Cl)cc1C(=O)[O-])Nc1cccc(-c2ccoc2)c1.[Na+]` [TM5441, 5-Chloro-2-[[2-[2-[[3-(3-furanyl)phenyl]amino]-2-oxoethoxy]acetyl]amino]benzoic acid sodium salt], which “Tumour burden (modified PCI score)” value (Colo-205 cells [2]) is on record?
Answer: significant reduction in tumour burden

Question: What about the “Sensitivity of cell-free ascites-treated Colo-205 cells to inhibitor (dose-response, cell proliferation)” value (Colo-205 cells [1]) of the same compound?
Answer: PAI-1 paracrine addicted (PPA) (n=18) being the most sensitive to PAI-1 inhibition, followed by co-activators predominant (CAP) (n=59) and alternative pathways activation (APA) (n=17)

Question: And the “IL6-JAK-STAT3 signalling pathway regulation (GSEA)” value [3]?
Answer: significantly down-regulated

Question: And the “Tumour burden (weight of all visible tumours), PC249 PDADX with PPA cell-free ascites (PC383)” value ([4]; CAP PDADX (PC249) exposed to PC383 PPA ascites)?
Answer: became susceptible to PAI-1 inhibition

Question: And the “Tumour burden (weight of all visible tumours), PC249 PDADX with matched cell-free ascites” value ([4]; CAP PDADX (PC249), matched CAP ascites)?
Answer: no reduction in tumour burden compared to vehicle control

Question: And the “Tumour burden (weight of all visible tumours), PC383 PDADX with matched cell-free ascites” value ([4]; PPA PDADX (PC383), matched PPA ascites, n=4 mice/group)?
Answer: significantly superior inhibition of tumour growth compared to vehicle control

Question: What about the “Concentration needed to suppress STAT3 activation (p-STAT3 ELISA)” value (phospho-STAT3 (Tyr705)) of the same compound?
Answer: required a lower concentration of TM5441 to supress STAT3 activation

Question: And the “Formation of peritoneal tumours (modified PCI score), intraperitoneal instillation” value (Colo-205 cells [5])?
Answer: effectively inhibited

Question: `CC(=O)c1cc2c(o1)C(=O)c1ccccc1C2=O` [Napabucasin] was tested. Which “Sensitivity of cell-free ascites-treated Colo-205 cells to inhibitor (dose-response, cell proliferation)” value (Colo-205 cells [1]) did it give?
Answer: ineffective

Question: How did the “Sensitivity of cell-free ascites-treated Colo-205 cells to inhibitor (dose-response, cell proliferation)” value (Colo-205 cells [1]) turn out when `O=C(O)C(=O)c1cn(Cc2ccccc2)c2ccc(-c3ccc(OC(F)(F)F)cc3)cc12` [Tiplaxtinin, 2-(1-Benzyl-5-(4-(trifluoromethoxy)phenyl)-1H-indol-3-yl)oxoacetic acid] was run?
Answer: showed the same trend of differential response

Question: Which “Sensitivity of cell-free ascites-treated Colo-205 cells to inhibitor (dose-response, cell proliferation)” value (Colo-205 cells [1]) does the source give for `CO[C@@]12[C@H](COC(N)=O)C3=C(C(=O)C(C)=C(N)C3=O)N1C[C@@H]1N[C@@H]12` [Mitomycin C] here?
Answer: ineffective
